Where a name gives a salt, the structure may show the parent alone. Values belong to the compound of their own block, whether it stands above or below them.
Assays:
[1] = target: Dipeptidyl peptidase IV (DPP-IV) (Homo sapiens (Human), UniProt P27487); assay: DPP-IV activity inhibitory assay in vitro; format: biochemical; conditions: substrate Gly-Pro-7-amido-4-methylcoumarin, fluorescence 355/460 nm
Description: 2.1 Dipeptidyl peptidase IV (DPP-IV): SIGMA products, Item No. D4943-1VL.
2.3 DPP-IV buffer: containing 25 mM Hepes, 140 mM NaCl, 1% BSA, 80 mM MgCl2, of which pH was adjusted to 8.0.
2.5 Testing equipment: envision (PerkinElmer Company).
The variation of the product amount can be determined by the variation of fluorescence intensity, so as to reflect the activity level of the enzyme.
The dipeptidyl peptidase IV (DPP-IV), DPP-IV buffer and test samples were used to construct the reaction system of 200 μL, while the blank control (without enzyme and samples) and negative control (without samples) having the same volume were set up. […] Inhibition ratio was calculated according to the fluorescence intensity F value, inhibition ratio=[1−(Fsample−Fblank)/(Fnegative−Fblank)]×100. […] According to inhibition ratio, 4 Parameter Logistic Model in Xlfit software was applied to calculate IC50.

normal KM mice = assay: Impact on glucose tolerance in normal mice; format: in vivo; conditions: for blood glucose at 30 min after glucose loaded / blood glucose at 60 min after glucose loaded / blood glucose at 120 min after glucose loaded / Fasting blood glucose: normal KM mice, x ± SD; for blood glucose at 30 min after glucose loaded / blood glucose at 60 min after glucose loaded / blood glucose at 120 min after glucose loaded / blood glucose value compared with the positive drug (Linagliptin) / blood glucose levels compared with the blank group: 3 mg/kg i.g; for blood glucose at 30 min after glucose loaded / blood glucose at 60 min after glucose loaded / blood glucose at 120 min after glucose loaded: glucose 8 g/kg i.g 30 min after drug; for Fasting blood glucose: fasted, before administration (baseline), group dosed 3 mg/kg i.g; for blood glucose value compared with the positive drug (Linagliptin) / blood glucose levels compared with the blank group: normal mice, at 30, 60 and 120 min after glucose loaded; for blood glucose levels compared with the blank group: P<0.01
Description: KM mice, 6 weeks old, weighing 18˜22 g, half male and half female, 60 mice, provided by Chengdu Dashuo Biological Technology Co., Ltd., Production license: SCXK (Chuan) 2008-24. Animals were housed in the animal room after purchased, adaptively observed for at least three days, and used for assays […] they were qualified for the quarantine standard.
(§1) 2.1 Animals were fasted for at least 12 hours before starting the assay;
2.2 Grouping: fasting blood glucose values of the fasted mice were measured, and the mice were randomly grouped according to Table 1, with no significant difference between the groups;
(§2) Animals in each group were administrated with corresponding investigational compounds according the Table 1 by intragastric administration (i.g), then administrated with glucose (8 g/kg) respectively by intragastric administration at 30 min after administrating drugs, and the blood glucose values thereof were measured respectively at 30 min, 60 min and 120 min after administrating the glucose (glucose loaded).
(§3) Excel was used for statistics, experimental data were expressed as ( x±SD), and two-sided T-test method was used to statistically compare the experimental data among multiple groups.

[2] = tested on: Type II spontaneous diabetic KKAy obese mice; assay: Impact on blood glucose in spontaneous diabetic mice; format: in vivo; conditions: for blood glucose at 30 min after glucose loaded / blood glucose at 60 min after glucose loaded / blood glucose at 120 min after glucose loaded: glucose 8 g/kg i.g 30 min after drug; for blood glucose at 30 min after glucose loaded / blood glucose at 60 min after glucose loaded / blood glucose at 120 min after glucose loaded / Fasting blood glucose: x ± SD; for Fasting blood glucose: fasted, before administration (baseline), group dosed 3 mg/kg i.g
Description: Type II spontaneous diabetic KKAy obese mice, 60 mice, 14 weeks old, half male and half female, purchased from Institute of Laboratory Animal Science, Chinese Academy of Medical Sciences (Qualified number: SCXK (Jing) 2009-0004). Animals were housed in the animal room after purchased, adaptively observed for at least three days, and used for assays […] they were qualified for the quarantine standard.
as §1
2.2 Fasting blood glucose values of the fasted mice were measured by ACCU-CHEK active glucose test strips, and the mice were randomly grouped according to Table 3. In addition, the C57BL/6J mice were used for the blank control group, while the type II spontaneous diabetic KKAy mice were used for the model group.
as §2, with “according” for “according the”, “Table 3” for “Table 1”
as §3

Sequence of Dipeptidyl peptidase IV (DPP-IV) (P27487 whole entry): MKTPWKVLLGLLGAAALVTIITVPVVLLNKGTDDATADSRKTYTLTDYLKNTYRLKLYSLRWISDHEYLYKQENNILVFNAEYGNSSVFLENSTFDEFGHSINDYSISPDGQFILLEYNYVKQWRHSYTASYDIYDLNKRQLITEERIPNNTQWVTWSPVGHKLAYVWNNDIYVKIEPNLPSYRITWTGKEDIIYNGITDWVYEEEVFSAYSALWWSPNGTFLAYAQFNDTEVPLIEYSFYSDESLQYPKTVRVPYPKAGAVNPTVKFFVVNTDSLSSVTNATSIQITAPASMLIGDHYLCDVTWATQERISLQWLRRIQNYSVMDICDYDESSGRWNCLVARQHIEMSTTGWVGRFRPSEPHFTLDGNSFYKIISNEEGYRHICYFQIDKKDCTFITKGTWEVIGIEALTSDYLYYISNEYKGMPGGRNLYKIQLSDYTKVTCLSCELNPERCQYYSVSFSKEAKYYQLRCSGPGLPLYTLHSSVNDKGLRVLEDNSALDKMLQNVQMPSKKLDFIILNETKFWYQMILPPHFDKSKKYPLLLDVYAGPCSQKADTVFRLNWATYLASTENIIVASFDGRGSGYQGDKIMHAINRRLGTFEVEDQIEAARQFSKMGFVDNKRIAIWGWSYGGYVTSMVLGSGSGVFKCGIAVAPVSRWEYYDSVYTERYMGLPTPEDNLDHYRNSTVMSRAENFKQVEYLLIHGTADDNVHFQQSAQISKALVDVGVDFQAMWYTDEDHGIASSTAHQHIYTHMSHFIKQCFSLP

IC50 [1]: 0.2 nM
Structure (SMILES): CC#CCn1c(N2CCC[C@@H](N)C2)nc2c1c(=O)n(Cc1nc3cc(Cl)ccc3s1)c(=O)n2C [Ex. 3, 1-[(5-chloro-1,3-benzothiazol-2-yl)methyl]-3-methyl-7-(2-butyn-1-yl)-8-[(R)-3-amino-piperidin-1-yl]-xanthine]
blood glucose at 30 min after glucose loaded (normal KM mice): 15.61 ± 1.10 mmol/L
blood glucose at 60 min after glucose loaded (normal KM mice): 13.49 ± 1.31 mmol/L
blood glucose at 120 min after glucose loaded (normal KM mice): 8.90 ± 1.26 mmol/L
Fasting blood glucose (normal KM mice): 7.19 ± 1.04 mmol/L
blood glucose value compared with the positive drug (Linagliptin) (normal KM mice): significantly decreased
blood glucose levels compared with the blank group (normal KM mice): extremely significantly decrease
blood glucose value compared with the positive drug Linagliptin at 30 min after glucose loaded ([2]; 3 mg/kg i.g): significantly decreased
blood glucose at 30 min after glucose loaded ([2]; 3 mg/kg i.g): 15.86 ± 1.04^▴▴★ mmol/L
blood glucose at 60 min after glucose loaded ([2]; 3 mg/kg i.g): 11.28 ± 1.67^▴▴★ mmol/L
blood glucose at 120 min after glucose loaded ([2]; 3 mg/kg i.g): 10.73 ± 1.46 mmol/L
Fasting blood glucose [2]: 9.15 ± 0.61 mmol/L

IC50 ([1]; hydrochloride): 0.15 nM
Structure (SMILES): CC#CCn1c(N2CCC[C@@H](N)C2)nc2c1c(=O)n(Cc1nc3ccccc3s1)c(=O)n2C [Ex. 5, 1-[(1,3-benzothiazol-2-yl)methyl]-3-methyl-7-(2-butyn-1-yl)-8-[(R)-3-amino-piperidin-1-yl]-xanthine hydrochloride]

Structure (SMILES): CC#CCn1c(N2CCC[C@@H](N)C2)nc2c1c(=O)n(Cc1nc3cc(F)ccc3s1)c(=O)n2C.Cl [Ex. 4, 1-[(5-fluoro-1,3-benzothiazol-2-yl)methyl]-3-methyl-7-(2-butyn-1-yl)-8-[(R)-3-amino-piperidin-1-yl]-xanthine hydrochloride]
blood glucose at 30 min after glucose loaded (normal KM mice): 15.50 ± 1.94 mmol/L
blood glucose at 60 min after glucose loaded (normal KM mice): 12.75 ± 1.43 mmol/L
blood glucose at 120 min after glucose loaded (normal KM mice): 8.91 ± 0.98 mmol/L
Fasting blood glucose (normal KM mice): 7.25 ± 0.98 mmol/L
blood glucose value compared with the positive drug (Linagliptin) (normal KM mice): significantly decreased
blood glucose levels compared with the blank group (normal KM mice): extremely significantly decrease
blood glucose value compared with the positive drug Linagliptin at 30 min after glucose loaded ([2]; 3 mg/kg i.g): significantly decreased
blood glucose at 30 min after glucose loaded ([2]; 3 mg/kg i.g): 15.60 ± 1.30^▴▴★ mmol/L
blood glucose at 60 min after glucose loaded ([2]; 3 mg/kg i.g): 11.45 ± 1.60^▴▴★ mmol/L
blood glucose at 120 min after glucose loaded ([2]; 3 mg/kg i.g): 10.75 ± 1.20 mmol/L
Fasting blood glucose [2]: 9.17 ± 0.58 mmol/L

Structure (SMILES): CC#CCn1c(N2CCC[C@@H](N)C2)nc2c1c(=O)n(Cc1nc(C)c3ccccc3n1)c(=O)n2C [Linagliptin, reference compound]
blood glucose at 30 min after glucose loaded (normal KM mice): 17.07 ± 1.83 mmol/L
blood glucose at 60 min after glucose loaded (normal KM mice): 14.98 ± 1.66 mmol/L
blood glucose at 120 min after glucose loaded (normal KM mice): 9.96 ± 0.89 mmol/L
Fasting blood glucose (normal KM mice): 7.13 ± 0.86 mmol/L
blood glucose levels compared with the blank group (normal KM mice): extremely significantly decrease
blood glucose levels compared with the model group ([2]; 3 mg/kg i.g, at 30, 60 and 120 min after glucose loaded, P<0.01): extremely significantly decrease
blood glucose at 30 min after glucose loaded ([2]; 3 mg/kg i.g): 17.14 ± 1.45 mmol/L
blood glucose at 60 min after glucose loaded ([2]; 3 mg/kg i.g): 13.10 ± 1.38 mmol/L
blood glucose at 120 min after glucose loaded ([2]; 3 mg/kg i.g): 11.27 ± 1.43 mmol/L
Fasting blood glucose [2]: 9.09 ± 0.53 mmol/L

IC50 [1]: 0.1 nM
Structure (SMILES): CC#CCn1c(N2CCC[C@@H](N)C2)nc2c1c(=O)n(Cc1nc3ccccc3s1)c(=O)n2C [Ex. 2, 1-[(1,3-benzothiazol-2-yl)methyl]-3-methyl-7-(2-butyn-1-yl)-8-[(R)-3-amino-piperidin-1-yl]-xanthine]
blood glucose at 30 min after glucose loaded (normal KM mice): 15.59 ± 2.04 mmol/L
blood glucose at 60 min after glucose loaded (normal KM mice): 12.78 ± 1.97 mmol/L
blood glucose at 120 min after glucose loaded (normal KM mice): 8.96 ± 1.16 mmol/L
Fasting blood glucose (normal KM mice): 7.43 ± 1.32 mmol/L
blood glucose value compared with the positive drug (Linagliptin) (normal KM mice): significantly decreased
blood glucose levels compared with the blank group (normal KM mice): extremely significantly decrease
blood glucose value compared with the positive drug Linagliptin at 30 min after glucose loaded ([2]; 3 mg/kg i.g): significantly decreased
blood glucose at 30 min after glucose loaded ([2]; 3 mg/kg i.g): 15.59 ± 1.23^▴▴★ mmol/L
blood glucose at 60 min after glucose loaded ([2]; 3 mg/kg i.g): 11.41 ± 1.58^▴▴★ mmol/L
blood glucose at 120 min after glucose loaded ([2]; 3 mg/kg i.g): 10.81 ± 1.37 mmol/L
Fasting blood glucose [2]: 9.07 ± 0.67 mmol/L

Structure (SMILES): CC#CCn1c(N2CCC[C@@H](N)C2)nc2c1c(=O)n(Cc1nc3cc(F)ccc3s1)c(=O)n2C [Ex. 1, 1-[(5-fluoro-1,3-benzothiazol-2-yl)methyl]-3-methyl-7-(2-butyn-1-yl)-8-[(R)-3-amino-piperidin-1-yl]-xanthine]
blood glucose at 30 min after glucose loaded (normal KM mice): 15.02 ± 1.99 mmol/L
blood glucose at 60 min after glucose loaded (normal KM mice): 12.61 ± 1.98 mmol/L
blood glucose at 120 min after glucose loaded (normal KM mice): 8.79 ± 0.88 mmol/L
Fasting blood glucose (normal KM mice): 7.27 ± 0.74 mmol/L
blood glucose value compared with the positive drug (Linagliptin) (normal KM mice): extremely significantly decreased
blood glucose levels compared with the blank group (normal KM mice): extremely significantly decrease
blood glucose value compared with the positive drug Linagliptin at 30 min after glucose loaded ([2]; 3 mg/kg i.g): extremely significantly decreased
blood glucose at 30 min after glucose loaded ([2]; 3 mg/kg i.g): 14.98 ± 1.53^▴▴★★ mmol/L
blood glucose at 60 min after glucose loaded ([2]; 3 mg/kg i.g): 11.10 ± 2.45^▴▴★ mmol/L
blood glucose at 120 min after glucose loaded ([2]; 3 mg/kg i.g): 9.97 ± 1.28 mmol/L
Fasting blood glucose [2]: 9.29 ± 0.71 mmol/L

Reference: patent publication US9255098B2, “Xanthine derivative” (Chengdu Easton Pharmaceutical Co., Ltd., priority 2012, dated 2016)
